# From PMC5114727, “Biological characterization of chemically diverse compounds targeting the Plasmodium falciparum coenzyme A synthesis pathway” (Parasites & Vectors, 2016)
# “And” between values parts separate entries of the source, which are not always exact repeats. Equal values may be shown once.
# Tests used:
# MDA-MB-231 cells = test: Resazurin cytotoxicity assay, MDA-MB-231; type: cell-based, human
# Description: (§1) An initial indication of compound selectivity over human cells had previously been obtained through comparison of the compounds’ IC50 values against P. falciparum asexual stages and HEK293 [22]. In the present study, the selectivity investigation was extended to a small panel of human cancer cell lines, namely the estrogen receptor (ER)-positive breast cancer cell line MCF7, the ER-negative MDA-MB-231, as well as the human prostate cancer line, PC-3. Additionally, the cytotoxic effects on mouse embryonic fibroblast cell line 3T3, which serves as the host cell for T. cruzi in our image-based amastigote assay, were investigated.
# (§2) Cytotoxicity of the compounds was assessed against a panel of human cancer cell lines, namely the estrogen receptor (ER)-positive breast cancer cell line MCF7, the ER-negative MDA-MB-231 and the prostate cancer line PC-3. All the cell lines were purchased from ATCC and maintained as previously described. Two biological replicates consisting of two technical replicates each were performed to generate concentration response curves (CRC) with a final highest concentration of 40 μM. A resazurin-based assay was utilized to determine cell viability as described earlier. Additionally, the cytotoxic effects on the mouse embryonic fibroblast cell line 3T3 were assessed as part of the Trypanosoma cruzi amastigote image-based assay as outlined in [35].
# [1] = target: early stage gametocytes (stage I to IIb/III) of P. falciparum line NF54^Pfs16; test: Gametocyte luciferase assay, early stage; type: cell-based, Plasmodium falciparum; conditions: highest concentration 40 μM; read-out: Early stage gametocyte IC50 ± SEM
# Description: (§3) To investigate a potential role of CoA biosynthesis for host to vector transmission of the malaria parasite, we investigated the activity of our compounds on P. falciparum gametocytes, the sexual stages of P. falciparum, essential for malaria transmission. […] Parasite stage-specificity and gametocytocidal activity of the compounds was therefore investigated, utilizing a luciferase-based approach on early stage (development from stage I to IIb/III [30]) and late stage (IV to V [51]) gametocytes.
# (§4) Induction of P. falciparum gametocyte differentiation and gametocyte culturing were performed as previously described. Compound activity against early stage gametocytes (covering the development from stage I to IIb/III) and late stage gametocytes (stage IV to V) of the recombinant P. falciparum line NF54^Pfs16 was assessed in concentration-response assays, in two experimental replicates consisting of two technical repeats each, at a highest concentration of 40 μM, as described earlier.
# [2] = tested on: P. falciparum asexual blood stages (PfAS); test: Chemical rescue with CoA pathway intermediates, asexual stages; type: cell-based, Plasmodium falciparum; conditions: for Percent rescue ± SEM by CoA, PfAS: CoA 0.8 mM; for Percent rescue ± SEM by CoA, PfAS / Percent rescue ± SEM by dephospho CoA, PfAS / Percent rescue ± SEM by pantethine, PfAS / Percent rescue ± SEM by pantothenate, PfAS: inhibitor at IC80; for Percent rescue ± SEM by dephospho CoA, PfAS: dP-CoA 0.8 mM; for Percent rescue ± SEM by pantethine, PfAS: pantethine 125 μM; for Percent rescue ± SEM by pantothenate, PfAS: pantothenate 300 μM
# Description: (§5) Pantothenate is the first substrate of the pathway (Fig. 1) and its addition was intended to rescue the action of possible competitive inhibitors of the first enzyme, PanK. […] It is not known, whether P. falciparum is capable of pantetheine phosphorylation for utilization in CoA synthesis. […] Finally, the rescue ability of dP-CoA, the final substrate of CoA synthesis, was tested. […] Inhibitors competing with dP-CoA for DPCK binding were expected to be displaced, thereby rescuing parasite survival, by dP-CoA supplementation in a concentration dependent manner.
# (§6) An imaging based assay was utilised to assess the chemical rescue on asexual stages of P. falciparum as described previously. All the pathway intermediates were purchased from Sigma. CoA and dP-CoA were dissolved in sterile distilled water to obtain a 20 mM stock solution, which was then aliquoted and stored at -20 °C until use. […] Each pathway intermediate was tested on the parasites at a range of concentrations to assess potential toxicity. […] On early stage P. falciparum gametocytes the same concentrations as for CoA were tested for dP-CoA; against asexual blood stage P. falciparum, late stage gametocytes and Trypanosoma b. brucei five dP-CoA concentrations were tested (2 mM, 1.5 mM, 1 mM, 0.75 mM and 0.5 mM).
# (§7) The same concentration ranges of the CoA pathway intermediates were supplemented to parasites treated with the experimental compounds. The inhibitors were used at their respective final assay concentration of IC80 (as determined previously in the corresponding P. falciparum development stage or T. b. brucei assay). […] The negative control used in each assay was 0.4% DMSO, whilst the positive control was 2 μM artemisinin for asexual P. falciparum blood stages and 5 μM puromycin for all gametocyte stages and T. b. brucei. The percentage growth of the respective parasites following compound treatment was determined using Microsoft ® Excel 2010, and compared with their controls. All rescue assays were performed as two independent experiments each in duplicate point.
# [3] = tested on: panel of human cancer cell lines (MCF7, MDA-MB-231, PC-3); test: Cytotoxicity across the panel of cell lines; type: cell-based
# Description: as §1, §2
# T. cruzi trypomastigotes = test: T. cruzi trypomastigote PrestoBlue assay; type: cell-based, Trypanosoma cruzi; conditions: for T. cruzi trypomastigote percent inhibition at the highest concentration tested: 40 µM, given if an IC50 could not be calculated
# Description: Compound activity against T. cruzi trypomastigotes was assessed in two independent experiments, without technical repeats, at a final highest compound concentration of 40 μM in concentration-response PrestoBlue assay, as previously described.
# [4] = tested on: late stage gametocytes (stage IV to V) of P. falciparum line NF54^Pfs16; test: Gametocyte luciferase assay, late stage; type: cell-based, Plasmodium falciparum
# Description: as §3, §4
# T. cruzi amastigotes = test: T. cruzi amastigote image-based assay in 3T3 host cells; type: cell-based, Trypanosoma cruzi; conditions: 40 µM per footnote; given if an IC50 could not be calculated
# Description: The next step taken was to determine whether the activity of the compounds was confined to P. falciparum, or whether it extended to other protozoan parasites. Compound activity against two members of another clinically important group of parasites, the kinetoplastids T. cruzi and T. b. brucei was determined. The sensitive high content imaging assay used to determine compound activity against T. cruzi assesses the intracellular amastigote life form of the parasite in the 3T3 host cell. It is important to simultaneously assess compound activity against 3T3 cells to determine potential cytotoxicity against the host cell line, since this could result in a false positive outcome. The T. b. brucei assay employs the REDOX indicator Alamar Blue to assess viability, which was developed into a 384-well assay format.
# Compound activity against T. cruzi amastigotes was assessed in an image-based assay in single point concentration-response and three biological replicates, at a final highest compound concentration of […], as previously described.
# [5] = tested on: P. falciparum early stage gametocytes (PfEG, stage I-III); test: Chemical rescue with CoA pathway intermediates, early stage gametocytes; type: cell-based, Plasmodium falciparum; conditions: inhibitor at IC80
# Description: as §5, §6
# as §7, with “compounds.” for “compounds. The inhibitors were used at their respective final assay concentration of IC80 (as determined previously in the corresponding P. falciparum development stage or T. b. brucei assay).”
# [6] = tested on: T. b. brucei trypomastigote; test: T. b. brucei resazurin (Alamar Blue) viability assay; type: cell-based, Trypanosoma brucei brucei; conditions: for IC50: highest concentration 40 μM, read-out: T. b. brucei trypomastigote IC50 ± SEM
# Description: Compound activity against two members of another clinically important group of parasites, the kinetoplastids T. cruzi and T. b. brucei was determined. The sensitive high content imaging assay used to determine compound activity against T. cruzi assesses the intracellular amastigote life form of the parasite in the 3T3 host cell. […] The T. b. brucei assay employs the REDOX indicator Alamar Blue to assess viability, which was developed into a 384-well assay format.
# Compound activity against T. b. brucei was assessed in a resazurin-based viability assay in concentration-response assays, without technical repeats, in two experimental replicates at a highest concentration of 40 μM, as previously described.
# PC-3 cells = test: Resazurin cytotoxicity assay, PC-3; type: cell-based, human
# Description: as §1, §2
# [7] = tested on: early stage gametocytes (stage I to IIb/III) of P. falciparum line NF54^Pfs16; conditions: cited from earlier work
# [8] = tested on: P. falciparum asexual blood stage; conditions: cited from earlier work; for IC50: as previously reported, read-out: Asexual P. falciparum IC50 ± SEM
# 3T3 cells = test: 3T3 host cell cytotoxicity (part of T. cruzi amastigote image-based assay); parameters: species or system mouse; conditions: bound = highest concentration with < 50 % inhibition; read-out: 3T3 cytotoxicity IC50 ± SEM
# Description: as §1, §2
# HEK293 cells = conditions: as previously reported; read-out: HEK293 cytotoxicity IC50 ± SEM; cited from earlier work
# [9] = tested on: P. falciparum developmental stages; test: Activity across all P. falciparum life-cycle stages tested (asexual, early and late gametocytes); type: cell-based, Plasmodium falciparum; conditions: early and late stage gametocytes
# Description: as §4
# MCF7 cells = test: Resazurin cytotoxicity assay, MCF7; type: cell-based, human
# Description: as §1, §2
# [10] = tested on: P. falciparum asexual blood stages / early gametocytes; test: Chemical rescue of MMV000570 (Table S3B; PfAS and PfEG replicates, columns not assignable); type: cell-based, Plasmodium falciparum; conditions: stage and replicate not assignable
# Description: as §6
# as §7, with “compounds.” for “compounds. The inhibitors were used at their respective final assay concentration of IC80 (as determined previously in the corresponding P. falciparum development stage or T. b. brucei assay).”
# [11] = 40 µM, given if an IC50 could not be calculated
smiles,measurement,setting,value
COc1ccc2c(=O)cc(C(Cl)(Cl)Cl)oc2c1 [MMV665820],"inhibition plateau level of the concentration-response curve, MDA-MB-231",MDA-MB-231 cells,43%
same,IC50,[1],0.44 ± 0.03 µM
same,"Percent rescue ± SEM by CoA, PfAS",[2],113.3 ± 12.3%
same,"Percent rescue ± SEM by dephospho CoA, PfAS",[2],88.6 ± 18.3%
same,"Percent rescue ± SEM by pantethine, PfAS",[2],No
same,"Percent rescue ± SEM by pantothenate, PfAS",[2],No
same,IC50,"[3]; MCF7, MDA-MB-231, PC-3, read-out: IC50 range against the cancer cell lines",0.27 to 0.43 µM
same,T. cruzi trypomastigote percent inhibition at the highest concentration tested,T. cruzi trypomastigotes,100%
same,Late stage gametocyte percent inhibition at the highest concentration tested,[4]; [11],69%
same,T. cruzi amastigote percent inhibition at the highest concentration tested,T. cruzi amastigotes,62%
same,"Percent rescue ± SEM by pantethine, PfEG",[5]; pantethine 10 mM,No
same,"Percent rescue ± SEM by pantothenate, PfEG",[5]; pantothenate 625 μM,No
same,IC50,[6],2.5 µM
same,"inhibition plateau level of the concentration-response curve, PC-3",PC-3 cells,80%
same,inhibition against early stage gametocytes in earlier dose-response,[7]; 1 μM,about 50%
same,IC50,[8],0.58 ± 0.08 µM
same,plateau of P. falciparum growth inhibition,[8]; asexual blood stage,100%
OC1CCCCC1C1(NC(=S)Nc2ccccc2)CCCCC1 (centres unmarked) [MMV665980],IC50,"MDA-MB-231 cells; highest concentration 40 μM, bound = highest concentration with < 50 % inhibition, read-out: MDA-MB-231 cytotoxicity IC50 ± SEM",> 40 µM
same,IC50,3T3 cells,> 40 µM
same,IC50,[1],7.54 ± 0.39 µM
same,"Percent rescue ± SEM by CoA, PfAS",[2],54.4 ± 2.5%
same,"Percent rescue ± SEM by dephospho CoA, PfAS",[2],46.0 ± 2.6%
same,"Percent rescue ± SEM by pantethine, PfAS",[2],No
same,"Percent rescue ± SEM by pantothenate, PfAS",[2],No
same,cytotoxicity against any of the cell lines investigated (in words),[3]; up to the highest tested concentration of 40 μM,no or only negligible cytotoxicity
same,IC50,"T. cruzi trypomastigotes; highest concentration 40 μM, read-out: T. cruzi trypomastigote IC50 ± SEM",4.42 ± 0.89 µM
same,IC50,"[4]; highest concentration 40 μM, read-out: Late stage gametocyte IC50 ± SEM",4.15 ± 0.56 µM
same,T. cruzi amastigote percent inhibition at the highest concentration tested,T. cruzi amastigotes,70%
same,T. b. brucei trypomastigote percent inhibition at the highest concentration tested,[6]; [11],100%
same,IC50,"PC-3 cells; highest concentration 40 μM, bound = highest concentration with < 50 % inhibition, read-out: PC-3 cytotoxicity IC50 ± SEM",> 20 µM
same,IC50,HEK293 cells,> 40 µM
same,gametocytocidal activity in earlier screen versus hit threshold (in words),"[7]; screening concentration 5 μM, threshold 50% activity",lower than the hit threshold
same,IC50,[8],6.31 ± 1.06 µM
same,activity against all P. falciparum development stages tested (in words),[9],"moderate, single digit micromolar activity"
same,IC50,"MCF7 cells; highest concentration 40 μM, bound = highest concentration with < 50 % inhibition, read-out: MCF7 cytotoxicity IC50 ± SEM",> 40 µM
CCc1ccc(Nc2cc(C)c3ccc(O)cc3n2)cc1.Cl [MMV000570],MDA-MB-231 percent inhibition at the highest concentration tested,MDA-MB-231 cells; 40 µM,90%
same,IC50,3T3 cells,> 40 µM
same,Rescue of growth inhibitory effect by any of the intermediates (in words),[2]; compound at 1 μM,could not effectively be rescued by any of the intermediates
same,T. cruzi trypomastigote percent inhibition at the highest concentration tested,T. cruzi trypomastigotes,100%
same,"percent rescue averages ± SEM by CoA, tested at IC80 concentration",[10],6.4% and 8.1% and -1.6% and 26.7%
same,"percent rescue averages ± SEM by pantothenate, tested at IC50 concentration",[10],3.5% and -0.6% and 4.3% and 28.6%
same,"percent rescue averages ± SEM by pantothenate, tested at IC80 concentration",[10],3.1% and 2.2% and 2.3% and 5.2%
same,T. cruzi amastigote percent inhibition at the highest concentration tested,T. cruzi amastigotes,96%
same,IC50,[6],5.85 ± 1.11 µM
same,PC-3 percent inhibition at the highest concentration tested,PC-3 cells; 40 µM,98%
same,IC50,HEK293 cells,~40 µM
same,MCF7 percent inhibition at the highest concentration tested,MCF7 cells; 40 µM,96%
